Test results published in PMC5185470 (Bioorganic & medicinal chemistry letters, 2016).

Key:
[1] = target: AChE (Homo sapiens, UniProt P22303); assay: biochemical; format: biochemical; settings: for increase of AChE inhibition relative to the unsubstituted nitropyridazine: vs JWS
[2] = target: BuChE (Homo sapiens, UniProt P06276); assay: biochemical
[3] = target: T1, M2 receptor (Homo sapiens, UniProt P08172); settings: read-out: M2 receptors IC50; previous studies; cited from earlier work
T1 sequence (P08172 1-466): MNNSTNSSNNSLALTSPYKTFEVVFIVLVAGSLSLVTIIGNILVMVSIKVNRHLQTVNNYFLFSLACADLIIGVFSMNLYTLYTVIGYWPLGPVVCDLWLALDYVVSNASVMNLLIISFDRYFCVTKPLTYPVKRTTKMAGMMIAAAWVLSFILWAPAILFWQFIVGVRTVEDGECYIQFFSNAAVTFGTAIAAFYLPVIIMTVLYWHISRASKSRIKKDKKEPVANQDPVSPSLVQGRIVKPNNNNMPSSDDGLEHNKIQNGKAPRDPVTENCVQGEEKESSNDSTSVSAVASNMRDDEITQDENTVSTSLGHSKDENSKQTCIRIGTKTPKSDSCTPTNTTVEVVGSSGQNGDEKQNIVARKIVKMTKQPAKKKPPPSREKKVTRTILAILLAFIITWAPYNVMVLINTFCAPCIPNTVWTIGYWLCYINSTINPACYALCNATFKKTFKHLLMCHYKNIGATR

[4] = Chemical decomposition on storage; format: physicochemical; settings: estimated, after 6 months; nitro replaced by hydroxyl

Chain of AChE (P22303 32-614): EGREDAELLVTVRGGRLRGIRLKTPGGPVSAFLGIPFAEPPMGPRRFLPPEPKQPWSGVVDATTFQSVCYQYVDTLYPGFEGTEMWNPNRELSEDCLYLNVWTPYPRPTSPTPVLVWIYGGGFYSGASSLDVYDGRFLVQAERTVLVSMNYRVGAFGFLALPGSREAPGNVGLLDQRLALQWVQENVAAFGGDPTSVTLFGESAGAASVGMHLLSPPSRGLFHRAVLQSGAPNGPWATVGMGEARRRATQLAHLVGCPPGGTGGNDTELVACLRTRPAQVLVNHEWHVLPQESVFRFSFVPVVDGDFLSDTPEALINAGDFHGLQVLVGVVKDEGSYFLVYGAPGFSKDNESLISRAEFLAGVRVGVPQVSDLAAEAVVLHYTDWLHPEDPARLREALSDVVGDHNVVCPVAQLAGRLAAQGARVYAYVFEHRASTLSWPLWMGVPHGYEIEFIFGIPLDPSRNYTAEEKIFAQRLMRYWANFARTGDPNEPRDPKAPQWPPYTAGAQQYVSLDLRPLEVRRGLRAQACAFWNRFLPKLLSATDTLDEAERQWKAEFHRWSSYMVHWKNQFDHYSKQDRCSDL
Chain of BuChE (P06276 29-602): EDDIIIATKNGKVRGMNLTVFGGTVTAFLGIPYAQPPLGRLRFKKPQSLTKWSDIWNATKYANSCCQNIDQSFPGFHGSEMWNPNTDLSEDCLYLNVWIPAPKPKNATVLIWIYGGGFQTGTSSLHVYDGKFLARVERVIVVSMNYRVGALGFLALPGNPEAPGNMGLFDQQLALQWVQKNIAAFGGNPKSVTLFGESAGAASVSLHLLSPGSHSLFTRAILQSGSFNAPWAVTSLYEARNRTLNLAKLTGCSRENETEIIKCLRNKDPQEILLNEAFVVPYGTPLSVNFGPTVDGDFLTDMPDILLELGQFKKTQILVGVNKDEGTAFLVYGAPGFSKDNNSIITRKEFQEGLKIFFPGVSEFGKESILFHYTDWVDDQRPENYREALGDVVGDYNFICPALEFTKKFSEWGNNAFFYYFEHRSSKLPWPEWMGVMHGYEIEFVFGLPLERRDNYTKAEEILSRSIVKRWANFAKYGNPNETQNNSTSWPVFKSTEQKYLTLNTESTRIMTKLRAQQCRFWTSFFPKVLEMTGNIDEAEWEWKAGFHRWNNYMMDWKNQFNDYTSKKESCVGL

Structure (SMILES) | IC50 [1] | IC50 [2] | also measured
Cc1cccc(Nc2ccccc2C(=O)NCCSCc2ccc(CN(C)C)o2)c1C [Compound 25] | > 50 µM | > 50 µM | –
Cc1ccc(S(=O)(=O)NCCSCc2ccc(CN(C)C)o2)cc1 [Compound 23] | > 50 µM | – | –
CN(C)Cc1ccc(CSCCNc2ccc(Cl)nn2)o1 [Compound 16] | – | > 50 µM | –
CN(C)Cc1ccc(CSCCNc2nnc(-c3ccccc3)c(-c3ccccc3)c2[N+](=O)[O-])o1 [Compound 12] | – | – | increase of AChE inhibition relative to the unsubstituted nitropyridazine [1]: ~3 fold
CN(C)Cc1ccc(CSCCN2C(=O)c3ccc([N+](=O)[O-])cc3C2=O)o1 [Compound 31] | – | > 50 µM | –
CN(C)Cc1ccc(CSCCNc2nc(N)no2)o1 [Compound 17] | > 50 µM | > 50 µM | –
CN(C)Cc1ccc(CSCCN2C(=O)CCC2=O)o1 [Compound 27] | – | > 50 µM | –
Cc1c(-c2ccccc2)nnc(NCCSCc2ccc(CN(C)C)o2)c1[N+](=O)[O-] [Compound 10] | – | – | increase of AChE inhibition relative to the unsubstituted nitropyridazine [1]: ~3 fold
CN(C)Cc1ccc(CSCCNC(=O)c2ccccc2-c2ccccc2C(=O)O)o1 [Compound 24] | > 50 µM | > 50 µM | –
CS/C(=N\S(=O)(=O)c1ccc(C)cc1)NCCSCc1ccc(CN(C)C)o1 [Compound 22] | > 50 µM | > 50 µM | –
CN(C)Cc1ccc(CSCCNc2nc(N)n[nH]2)o1 [Compound 18] | > 50 µM | > 50 µM | –
CN(C)Cc1ccc(CSCCN2C(=O)c3cccc4cc([N+](=O)[O-])cc(c34)C2=O)o1 [Compound 33] | – | – | fold less active than donepezil (AChE) ([1]; vs donepezil IC50 = 0.050 µM): 3 fold
CN(C)Cc1ccc(CSCCNc2nnccc2[N+](=O)[O-])o1 [JWS, N-(2-(((5-((dimethylamino)methyl)furan-2-yl)methyl)thio)ethyl)-4-nitropyridazin-3-amine] | – | – | IC50 [3]: 0.06 µM; chemical decomposition [4]: about 10%
CC1CC(=O)N(CCSCc2ccc(CN(C)C)o2)C1=O (centres unmarked) [Compound 28] | – | > 50 µM | –
